Source: PMC7179302, “Lead Optimization of Dehydroemetine for Repositioned Use in Malaria” (Antimicrobial Agents and Chemotherapy, 2020)
Structures can show the parent of a compound that is named as a salt.

How the values were obtained:
Assay type in all cases: cell-based
[1] = tested on: female gametocytes in P. falciparum strain NF54; assay: Dual gamete formation assay, female gametocytes (Pfs25 expression); conditions: Plasmodium falciparum, 48 h incubation
Method: (§1) A bioassay was performed to assess the malaria transmission-blocking potential of compounds on P. falciparum strain NF54 by estimating their ability to prevent male mature gametocytes from progressing to male microgametes or/and to inhibit female gamete activation, as indicators of gametocyte functionality. The NF54 strain was selected for its increased ability to produce gametocytes under in vitro conditions ([45]). The activation of male gametocytes into mature microgametes is evaluated by the process of exflagellation (extrusion of rapidly waving flagellum-like microgametes from the infected erythrocyte). The activation of female gametocytes is evaluated based on the specific expression of the P. falciparum s25 (Pfs25) protein at the surface of the female activated gametes ([46]). […]
(§2) Asexual cultures of P. falciparum strain NF54 parasites were used to seed gametocyte cultures at 0.5% parasitemia, 4% hematocrit in a 50-ml total volume under 3% O2, 5% CO2, 92% N2 gas. […] Plates were analyzed to detect exflagellation centers. […] Then, plates were analyzed to detect female activated gametes. Activation of male gametes was detected based on light changes provoked by flagellar movements that caused movement of surrounding cells. A 10-frame video was taken and then analyzed to determine these changes in cell position based on changes in pixels. […]

[2] = tested on: male gametocytes in P. falciparum strain NF54; assay: Dual gamete formation assay, male gametocytes (exflagellation); conditions: Plasmodium falciparum, 48 h incubation
Method: as §1, §2

[3] = tested on: Plasmodium falciparum rings and trophozoites/schizonts; assay: Stage-specific profiling using synchronized cultures; conditions: highest concentration tested, 24 h exposure, read 24 h after postexposure wash
Method: Parasite cultures with ≥80% trophozoites and ≥80% rings were obtained by synchronization with 5% sorbitol ([42]). The cultures were synchronized twice, at 0 h and 31 h, to obtain young rings which were up to 3 h old. To obtain early schizont stages, the cultures were synchronized twice, with the second synchronization being 6 to 8 h after the first. […] The plates were washed 4 times after the incubation in order to dilute the drug concentration by >1,000-fold. The plates were incubated for another 24 h at 37°C, following which SYBR green staining was used to read the plates as described above.

[4] = tested on: K1 strain of P. falciparum; assay: IC50 determination against K1 strain of P. falciparum, SYBR green-based assay, 72 h; conditions: Plasmodium falciparum, K1, 72 h, read-out: IC50 against K1 strain of P. falciparum
Method: Based on the anecdotal evidence, two synthetic analogues of emetine dihydrochloride, (−)-R,S-dehydroemetine and (−)-S,S-dehydroisoemetine, were synthesized. Experiments to test drug efficacy were set up, and (−)-R,S-dehydroemetine was tested in 2-fold serial dilutions from 12.5 nM to 200 nM. A dose-response experiment was set up on synchronized ring stage cultures of the K1 strain of P. falciparum to be read at 72 h. […] (−)-S,S-dehydroisoemetine was tested in 2-fold serial dilutions from 0.625 μM to 10 μM. […]
Ring stage parasites were diluted to 0.5 to 1% parasitemia, 2.5% hematocrit (in a 96-well-plate format, 200-μl final well volume) and treated for 72 h. Dose-response parasitemia was determined using the SYBR green-based flow cytometer or plate reader method previously optimized in the laboratory ([14]).
Following drug efficacy experiments, 150-μl amounts from the control and drug-treated wells on a 96-well plate were transferred to microcentrifuge tubes, and samples were washed once with phosphate-buffered saline (PBS). […] Parasitemia was determined by measuring SYBR green fluorescence using the FITC channel of the BD FACSVerse flow cytometer system (blue laser; excitation laser line, 488 nm, with excitation maximum of 494 nm and emission maximum of […]) and cell size (forward scatter [FSC-A]). Fifty thousand events were recorded, in three replicates for each. […]

| SMILES | IC50 [1] [µM] | IC50 [2] [µM] | Parasitaemia (percentage) Rings ([3]; 8500 (nM per legend)) [%] | Parasitaemia (percentage) Trophozoites ([3]; 8500 (nM per legend)) [%] | IC50 [4] [µM] | Parasitaemia (percentage) Rings ([3]; 200 (μM per legend)) [%] | Parasitaemia (percentage) Trophozoites ([3]; 200 (μM per legend)) [%] |
| --- | --- | --- | --- | --- | --- | --- | --- |
| CCC1=C(C[C@H]2NCCc3cc(OC)c(OC)cc32)C[C@H]2c3cc(OC)c(OC)cc3CCN2C1 [(−)-R,S-dehydroemetine, (S)-2-((R)-6,7-dimethoxy-1,2,3,4-tetrahydro-isoquinolin-1-ylmethyl)-3-ethyl-9,10-dimethoxy-1,6,7,11b-tetrahydro-4H-pyrido[2,1-a]isoquinoline * dihydrobromide] | 1.04 | 0.43 | 50.21 | 19.75 | 0.071 ± 0.0061 |  |  |
| CCC1=C(C[C@@H]2NCCc3cc(OC)c(OC)cc32)C[C@H]2c3cc(OC)c(OC)cc3CCN2C1 [(−)-S,S-dehydroisoemetine, (S)-2-((S)-6,7-dimethoxy-1,2,3,4-tetrahydro-isoquinolin-1-ylmethyl)-3-ethyl-9,10-dimethoxy-1,6,7,11b-tetrahydro-4H-pyrido[2,1-a]isoquinoline * dihydrobromide] | > 10 | > 10 |  |  | 2.07 ± 0.26 | 70.98 | 24.67 |
